From PubChem BioAssay AID248 (DTP/NCI, 2004)
Inconclusive results and toxic doses are left out. Cut-off read from the data, not from the text of the source: active = T/C of 150% or more; inactive = T/C below 125%. Square brackets hold non-standard residues; d marks the D form. Peptide text beside a SMILES is read from it. * marks the point of attachment. ξ: configuration not given here. ξY = NC(Cc1ccc(O)cc1)C(=O)O; Cbz = O=C(OCc1ccccc1)*; OBn = c1ccc(CO*)cc1

Tested on: L1210 leukemia ip in BDF1 mice, survival T/C
Assay: NCI In Vivo Anticancer Drug Screen. Data for tumor model L1210 Leukemia (intraperitoneal) in B6D2F1 (BDF1) mice
Conditions: endpoint: mean survival time, higher = longer survival
How it was run: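 Transplanted-tumor mice were given test agent; controls received vehicle only. Survival readings from the two groups were divided (treated over control).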

[1] = dose: 50.0 mg/kg/injection, schedule: Q01DX009 (ip), vehicle: Klucel (hydroxypropylcellulose) (HPC)
[2] = dose: 50.0 mg/kg/injection, schedule: Q04DX003 (ip), vehicle: Klucel (hydroxypropylcellulose) (HPC)
[3] = dose: 100.0 mg/kg/injection, schedule: Q01DX009 (ip), vehicle: Klucel (hydroxypropylcellulose) (HPC)
[4] = dose: 100.0 mg/kg/injection, schedule: Q04DX003 (ip), vehicle: Klucel (hydroxypropylcellulose) (HPC)
[5] = dose: 200.0 mg/kg/injection, schedule: Q01DX009 (ip), vehicle: Klucel (hydroxypropylcellulose) (HPC)
[6] = dose: 200.0 mg/kg/injection, schedule: Q04DX003 (ip), vehicle: Klucel (hydroxypropylcellulose) (HPC)
[7] = dose: 400.0 mg/kg/injection, schedule: Q04DX003 (ip), vehicle: Klucel (hydroxypropylcellulose) (HPC)
[8] = dose: 100.0 mg/kg/injection, schedule: Q01DX001 (ip), vehicle: Klucel (hydroxypropylcellulose) (HPC)
[9] = dose: 200.0 mg/kg/injection, schedule: Q01DX001 (ip), vehicle: Klucel (hydroxypropylcellulose) (HPC)
[10] = dose: 400.0 mg/kg/injection, schedule: Q01DX001 (ip), vehicle: Klucel (hydroxypropylcellulose) (HPC)
[11] = dose: 100.0 mg/kg/injection, schedule: Q04DX003 (ip), vehicle: saline with Tween-80
[12] = dose: 200.0 mg/kg/injection, schedule: Q04DX003 (ip), vehicle: saline with Tween-80
[13] = dose: 400.0 mg/kg/injection, schedule: Q04DX003 (ip), vehicle: saline with Tween-80
[14] = dose: 400.0 mg/kg/injection, schedule: Q01DX009 (ip), vehicle: Klucel (hydroxypropylcellulose) (HPC)
[15] = dose: 100.0 mg/kg/injection, schedule: Q01DX009 (ip), vehicle: saline
[16] = dose: 100.0 mg/kg/injection, schedule: Q04DX003 (ip), vehicle: saline
[17] = dose: 200.0 mg/kg/injection, schedule: Q01DX009 (ip), vehicle: saline
[18] = dose: 200.0 mg/kg/injection, schedule: Q04DX003 (ip), vehicle: saline
[19] = dose: 400.0 mg/kg/injection, schedule: Q01DX009 (ip), vehicle: saline
[20] = dose: 100.0 mg/kg/injection, schedule: Q01DX009 (ip), vehicle: saline with Tween-80
[21] = dose: 400.0 mg/kg/injection, schedule: Q01DX009 (ip), vehicle: saline with Tween-80

Measured: T/C

CCc1ccc2c(c1)Nc1ccccc1S2
inactive: [1] 97 % of control | [2] 91 % of control | [3] 97 % of control | [4] 96 % of control | [5] 101 % of control | [6] 97 % of control | [7] 86 % of control

CCOC(=O)Cc1c(C(=O)OCC)[nH]c(C)c1C(C)=O
inactive: [8] 104 % of control | [9] 95 % of control | [10] 95 % of control

CC1C(c2ccccc2)N1C(=O)Nc1ccccc1 (stereo not drawn)
inactive: [8] 93 % of control | [9] 96 % of control | [10] 98 % of control

NC(=S)N/N=C(\c1ccc(Cl)cc1)C1CC1
inactive: dose: 3.0 mg/kg/injection, schedule: Q01DX Z (ip), vehicle: carboxymethylcellulose (CMC) 96 % of control | dose: 7.0 mg/kg/injection, schedule: Q01DX Z (ip), vehicle: carboxymethylcellulose (CMC) 96 % of control | dose: 7.0 mg/kg/injection, schedule: Q01DX Z (sc), vehicle: carboxymethylcellulose (CMC) 121 % of control | dose: 15.0 mg/kg/injection, schedule: Q01DX Z (ip), vehicle: carboxymethylcellulose (CMC) 97 % of control | dose: 15.0 mg/kg/injection, schedule: Q01DX Z (sc), vehicle: carboxymethylcellulose (CMC) 120 % of control

CC1(C)CN(N=O)C(C)(C)CN1N=O
inactive: dose: 100.0 mg/kg/injection, schedule: Q04DX003 (ip), vehicle: acetone 99 % of control | dose: 200.0 mg/kg/injection, schedule: Q04DX003 (ip), vehicle: acetone 103 % of control | dose: 400.0 mg/kg/injection, schedule: Q04DX003 (ip), vehicle: acetone 96 % of control

Cc1ccc(NC(=S)NCCO)cc1C
inactive: [11] 98 % of control | [12] 98 % of control | [13] 97 % of control

Cc1cccc(NC(=O)C(Br)C(Br)c2ccccc2)c1C (stereo not drawn)
inactive: [3] 94 % of control | [5] 105 % of control | [14] 105 % of control

CN(C)CCOC(=O)COc1ccc(Cl)cc1
inactive: dose: 25.0 mg/kg/injection, schedule: Q01DX009 (ip), vehicle: saline 96 % of control | dose: 25.0 mg/kg/injection, schedule: Q04DX003 (ip), vehicle: saline 93 % of control | dose: 50.0 mg/kg/injection, schedule: Q01DX009 (ip), vehicle: saline 100 % of control | dose: 50.0 mg/kg/injection, schedule: Q04DX003 (ip), vehicle: saline 98 % of control | [15] 97 % of control | [16] 90 % of control | [17] 96 % of control | [18] 114 % of control | [19] 96 % of control | dose: 400.0 mg/kg/injection, schedule: Q04DX003 (ip), vehicle: saline 101 % of control

C[N+](C)(C)Cc1ccc([N+](=O)[O-])cc1
inactive: dose: 2.2 mg/kg/injection, schedule: Q01DX001 (ip), vehicle: saline 101 % of control | dose: 3.3 mg/kg/injection, schedule: Q01DX001 (ip), vehicle: saline 97 % of control | dose: 5.0 mg/kg/injection, schedule: Q01DX001 (ip), vehicle: saline 94 % of control | dose: 7.5 mg/kg/injection, schedule: Q01DX001 (ip), vehicle: saline 101 % of control

C=CCNC(=O)Oc1cccc(NC(=O)CC)c1
inactive: [20] 94 % of control | dose: 200.0 mg/kg/injection, schedule: Q01DX009 (ip), vehicle: saline with Tween-80 91 % of control | [21] 87 % of control

O=C(O)COc1ccc(Cl)cc1Cl
inactive: [15] 100 % of control | [17] 100 % of control

O=C(CNC(=O)OCc1ccccc1)NC(Cc1ccc(O)cc1)C(=O)OCc1ccccc1 (stereo not drawn) (Cbz-Gly-[ξY]-OBn)
inactive: [4] 96 % of control | [6] 97 % of control | [7] 91 % of control

CN(C)c1ccc(N=Nc2ccccc2)c2cccnc12
inactive: dose: 6.25 mg/kg/injection, schedule: Q01DX009 (ip), vehicle: DMSO 103 % of control | dose: 12.5 mg/kg/injection, schedule: Q01DX009 (ip), vehicle: DMSO 94 % of control | dose: 25.0 mg/kg/injection, schedule: Q01DX009 (ip), vehicle: DMSO 96 % of control | dose: 50.0 mg/kg/injection, schedule: Q01DX009 (ip), vehicle: DMSO 92 % of control | dose: 100.0 mg/kg/injection, schedule: Q01DX009 (ip), vehicle: DMSO 96 % of control | dose: 100.0 mg/kg/injection, schedule: Q04DX003 (ip), vehicle: DMSO 94 % of control | dose: 200.0 mg/kg/injection, schedule: Q04DX003 (ip), vehicle: DMSO 88 % of control | dose: 400.0 mg/kg/injection, schedule: Q04DX003 (ip), vehicle: DMSO 90 % of control

CCCCCCCCCCCCCCCC(=O)Nc1cccc2c[n+](CC(=O)c3ccc(NC(=O)CCC(=O)OC)cc3)ccc12
inactive: [20] 87 % of control | [21] 91 % of control | [13] 94 % of control

NNc1ncnc2c(C3OC(CO)C(O)C3O)[nH]nc12 (stereo not drawn)
inactive: dose: 12.5 mg/kg/injection, schedule: Q01DX009 (ip), vehicle: Klucel (hydroxypropylcellulose) (HPC) 111 % of control | dose: 20.0 mg/kg/injection, schedule: Q01DX009 (ip), vehicle: water 107 % of control | dose: 25.0 mg/kg/injection, schedule: Q01DX005 (ip), vehicle: Klucel (hydroxypropylcellulose) (HPC) 118 % of control | dose: 30.0 mg/kg/injection, schedule: Q01DX009 (ip), vehicle: water 107 % of control | dose: 45.0 mg/kg/injection, schedule: Q01DX009 (ip), vehicle: water 112 % of control | dose: 50.0 mg/kg/injection, schedule: Q01DX005 (ip), vehicle: Klucel (hydroxypropylcellulose) (HPC) 124 % of control | dose: 50.0 mg/kg/injection, schedule: Q01DX005 (ip), vehicle: saline 118 % of control | [1] 113 % of control | dose: 67.0 mg/kg/injection, schedule: Q01DX009 (ip), vehicle: water 122 % of control | [3] 122 % of control | [16] 118 % of control | dose: 100.0 mg/kg/injection, schedule: Q08DX002 (ip), vehicle: saline 102 % of control | dose: 150.0 mg/kg/injection, schedule: Q01DX009 (ip), vehicle: saline 120 % of control | dose: 200.0 mg/kg/injection, schedule: Q01DX005 (ip), vehicle: Klucel (hydroxypropylcellulose) (HPC) 106 % of control | dose: 200.0 mg/kg/injection, schedule: Q01DX005 (ip), vehicle: saline 106 % of control | [18] 122 % of control | dose: 200.0 mg/kg/injection, schedule: Q08DX002 (ip), vehicle: saline 122 % of control | dose: 800.0 mg/kg/injection, schedule: Q08DX002 (ip), vehicle: saline 104 % of control

Nc1nc(Br)c(Br)nc1N
inactive: [11] 104 % of control | [12] 96 % of control | [13] 93 % of control

CC(C)CC(N=C(NC(CC(C)C)C(=O)O)c1ccccc1)C(=O)O (stereo not drawn)
inactive: [3] 108 % of control | [5] 105 % of control | [14] 95 % of control

Nc1cc(Cl)ccc1S(N)(=O)=O
inactive: [15] 92 % of control | [11] 105 % of control | [17] 100 % of control | [12] 105 % of control | [19] 111 % of control | [13] 108 % of control

Cc1cc(-c2ccccc2)c(-c2ccccn2)c2ccccc12
inactive: [4] 96 % of control | [6] 91 % of control | [7] 86 % of control

C1=C(c2ccccc2)N(C2CCCCCCC2)C(c2ccccc2)=CN1Cc1ccccc1
inactive: dose: 100.0 mg/kg/injection, schedule: Q04DX002 (ip), vehicle: Klucel (hydroxypropylcellulose) (HPC) 103 % of control | dose: 200.0 mg/kg/injection, schedule: Q04DX002 (ip), vehicle: Klucel (hydroxypropylcellulose) (HPC) 103 % of control | dose: 400.0 mg/kg/injection, schedule: Q04DX002 (ip), vehicle: Klucel (hydroxypropylcellulose) (HPC) 100 % of control

ClC1(Cl)C2CCC3(CC21)OCCO3 (stereo not drawn)
inactive: [2] 115 % of control | [8] 114 % of control | [4] 103 % of control | [9] 106 % of control | [6] 93 % of control | [10] 101 % of control | [7] 106 % of control
